Source: patent US20130289083A1, “IDO Inhibitors” (priority 2007, published 2013)
Read-outs that look alike come from different tables or passages of the source.

Columns and labels:
human IDO = human IDO (Homo sapiens, UniProt P14902); assay: Cell based IDO/kynurenine assay in IDO-293-T-Rex cells; conditions: kynurenine production, 293T cells expressing human IDO, read-out: hIDO EC50
In short: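 293-T-REx cells stably carrying doxycycline-inducible human or murine IDO were incubated with inhibitors in induction medium for 16 h at 37° C. Medium was TCA-treated at 60° C and reacted with p-dimethylaminobenzaldehyde. Kynurenine was quantified by absorbance at 480 nm.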

[1] = biological target: purified human IDO protein (Homo sapiens, UniProt P14902); assay: Enzymatic IDO assay (kynurenine production, absorbance 480 nm); conditions: recombinant human IDO, enzymatic activity
murine IDO = biological target: T1, murine IDO (Mus musculus, UniProt P28776); assay: Cell based IDO/kynurenine assay in 293-T-Rex cells expressing murine IDO; conditions: cells expressing murine IDO, read-out: mIDO EC50
T1 construct: expressed in transfected cells; host or cells: 293-T-REx cells (Invitrogen), doxycycline-inducible CMV-tet promoter
Method: Transfected cells were selected in DBZ medium (DMEM, 10% FBS, 1× Penicillin+Streptomycin, 2 mM L-glutamine, 5 μg/mL blasticidin and 25 μg/ml Zeocin) at 37° C. with a 5% CO2 in air atmosphere. Individual clones were isolated by limiting dilution cloning from these populations.
The cells incubated in Neutral medium serve as negative control of the assay. The cells incubated in Induction medium and without inhibitor serve as the positive control of the assay. The incubation is carried out for 16 h at 37° C. in a cell culture incubator. 200 μL of medium are transferred to U-bottom polypropylene 96-well plates containing 25 μL of 30% TCA, incubated 30 minutes at 60° C. and centrifuged at 3400 g for 5 minutes. 150 μL of the clear supernatant is transferred to a polystyrene 96-well plate containing 50 μL of 4% (w/v) of p-dimethylaminobenzaldehyde in acetic acid, incubated for 10 min. Kynurenine concentration is determined by measuring the absorbance at 480 nm.

T1 sequence (P28776 whole entry): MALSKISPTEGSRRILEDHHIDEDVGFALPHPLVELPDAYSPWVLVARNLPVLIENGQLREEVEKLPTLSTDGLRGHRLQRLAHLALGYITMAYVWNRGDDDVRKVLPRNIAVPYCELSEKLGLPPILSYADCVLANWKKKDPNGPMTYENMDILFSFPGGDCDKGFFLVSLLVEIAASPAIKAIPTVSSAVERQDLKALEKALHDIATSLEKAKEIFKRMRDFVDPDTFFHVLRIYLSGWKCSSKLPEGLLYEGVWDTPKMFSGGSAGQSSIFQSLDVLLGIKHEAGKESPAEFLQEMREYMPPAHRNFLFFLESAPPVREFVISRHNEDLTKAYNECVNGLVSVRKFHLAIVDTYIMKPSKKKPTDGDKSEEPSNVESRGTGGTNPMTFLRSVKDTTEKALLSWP
Sequence of human IDO (P14902 whole entry): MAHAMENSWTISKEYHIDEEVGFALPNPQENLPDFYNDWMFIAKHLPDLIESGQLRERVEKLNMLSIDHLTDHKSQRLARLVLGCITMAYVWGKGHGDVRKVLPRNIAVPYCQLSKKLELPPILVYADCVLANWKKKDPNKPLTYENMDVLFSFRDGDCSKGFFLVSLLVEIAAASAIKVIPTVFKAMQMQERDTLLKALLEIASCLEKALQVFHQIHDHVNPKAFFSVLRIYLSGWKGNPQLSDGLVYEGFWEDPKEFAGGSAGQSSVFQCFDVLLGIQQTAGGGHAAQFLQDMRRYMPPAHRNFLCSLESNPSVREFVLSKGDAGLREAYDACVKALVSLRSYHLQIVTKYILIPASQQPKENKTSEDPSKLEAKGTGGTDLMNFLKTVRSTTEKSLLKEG
Sequence of purified human IDO protein (P14902 whole entry P110S/E119G): as the sequence (P14902 whole entry) above, with P110S, E119G counted along it

SMILES	EC50 (human IDO; Table 15) [µM]	IC50 ([1]; hIDO IC50, Table 15) [µM]	EC50 (murine IDO; Table 15) [µM]	EC50 (human IDO; Table 16) [µM]	IC50 ([1]; hIDO IC50, Table 16) [µM]	EC50 (murine IDO; Table 16) [µM]
NOCc1cccc(-c2ccccc2)c1 [compound 1825, O-(biphenyl-3-ylmethyl)hydroxylamine]	< 10	< 10	10 to 100	–	–	–
NOCc1cccc(Nc2ccccc2)c1 [compound 1829, 3-(aminooxymethyl)-N-phenylaniline]	< 10	< 10	< 10	–	–	–
COc1cccc(CON)c1 [compound 1682, O-(3-methoxybenzyl)hydroxylamine]	–	–	–	< 10	< 10	< 10
COc1ccc(OC)c(CON)c1 [compound 1771, O-(2,5-dimethoxybenzyl)hydroxylamine]	< 10	< 10	< 10	–	–	–
NOCc1ccccc1-c1ccccc1 [compound 1827, O-(biphenyl-2-ylmethyl)hydroxylamine]	< 10	< 10	10 to 100	–	–	–
NOCc1ccccc1-c1ccc(Cl)cc1 [compound 1879, O-((4′-chlorobiphenyl-2-yl)methyl)hydroxylamine]	< 10	< 10	10 to 100	–	–	–
COC(=O)CCC(ON)c1ccccc1 (stereo not drawn) [compound 1880, methyl 4-(aminooxy)-4-phenylbutanoate]	< 10	< 10	100 to 1000	–	–	–
NOCc1ccc2ncccc2c1 [compound 1741, O-(quinolin-6-ylmethyl)hydroxylamine]	< 10	10 to 100	< 10	–	–	–
NOCc1cc2ccccc2o1 [compound 1774, O-(benzofuran-2-ylmethyl)hydroxylamine]	< 10	< 10	< 10	–	–	–
NOCc1cccc2ccccc12 [compound 1767, O-(naphthalen-1-ylmethyl)hydroxylamine]	–	–	–	< 10	< 10	10 to 100
C=CCC(ON)c1cccc([N+](=O)[O-])c1 (stereo not drawn) [compound 1755, O-(1-(3-nitrophenyl)but-3-enyl)hydroxylamine]	–	–	–	< 10	< 10	< 10
N#Cc1cccc(CON)c1 [compound 1873, 3-(aminooxymethyl)benzonitrile]	< 10	< 10	< 10	–	–	–
NOCc1ccc(F)cc1Cl [compound 1676, O-(2-chloro-4-fluorobenzyl)hydroxylamine]	< 10	< 10	10 to 100	–	–	–
NOCc1cc(F)cc(Cl)c1 [compound 1660, O-(3-chloro-5-fluorobenzyl)hydroxylamine]	< 10	< 10	< 10	–	–	–
COc1ccc(-c2cccc(CON)c2)cc1 [compound 1882, O-((4′-methoxybiphenyl-3-yl)methyl)hydroxylamine]	< 10	< 10	10 to 100	–	–	–
NOCc1csc2ccc(Cl)cc12 [compound 1743, O-((5-chlorobenzo[b]thiophen-3-yl)methyl)hydroxylamine]	< 10	< 10	10 to 100	–	–	–
Cc1cccc(CON)c1 [compound 1692, O-(3-methylbenzyl)hydroxylamine]	–	–	–	< 10	10 to 100	10 to 100
NOCc1cc(Cl)ccc1-c1cccc(Cl)c1 [compound 1918, O-((3′,4-dichlorobiphenyl-2-yl)methyl)hydroxylamine]	< 10	< 10	10 to 100	–	–	–
NOCc1ccccc1Br [compound 1675, O-(2-bromobenzyl)hydroxylamine]	–	–	–	< 10	< 10	< 10

SMILES	EC50 (human IDO; Table 15) [µM]	IC50 ([1]; hIDO IC50, Table 15) [µM]	EC50 (murine IDO; Table 15) [µM]	EC50 (human IDO; Table 16) [µM]	IC50 ([1]; hIDO IC50, Table 16) [µM]	EC50 (murine IDO; Table 16) [µM]
CNC(=O)CCC(ON)c1ccccc1 (stereo not drawn) [compound 1898, 4-(aminooxy)-N-methyl-4-phenylbutanamide]	< 10	10 to 100	10 to 100	–	–	–
NOCc1cccc(NCc2ccccc2)c1 [compound 1872, 3-(aminooxymethyl)-N-benzylaniline]	< 10	< 10	< 10	–	–	–
NOC(Cc1ccccc1)c1ccccc1 (stereo not drawn) [compound 1921, O-(1,2-diphenylethyl)hydroxylamine]	< 10	< 10	10 to 100	–	–	–
NOCc1cc(Cl)ccc1-c1ccc(Cl)c(Cl)c1 [compound 1919, O-((3′,4,4′-trichlorobiphenyl-2-yl)methyl)hydroxylamine]	< 10	< 10	10 to 100	–	–	–
NOCc1ccccc1C(F)(F)F [compound 1677, O-(2-(trifluoromethyl)benzyl)hydroxylamine]	–	–	–	< 10	< 10	10 to 100
NOC1CCCCO1 (stereo not drawn) [compound 1669, O-(tetrahydro-2H-pyran-2-yl)hydroxylamine]	–	–	–	< 10	10 to 100	< 10
NOCc1ccc(F)c(Cl)c1 [compound 1673, O-(3-chloro-4-fluorobenzyl)hydroxylamine]	–	–	–	< 10	100 to 1000	> 1000
NOc1cccc2ccccc12 [compound 1903, O-(naphthalen-1-yl)hydroxylamine]	10 to 100	< 10	10 to 100	–	–	–
NOCc1cc(Cl)ccc1-c1cncnc1 [compound 1923, O-(5-chloro-2-(pyrimidin-5-yl)benzyl)hydroxylamine]	< 10	< 10	< 10	–	–	–
NOCc1cccc(-c2ccc(Cl)cc2)c1 [compound 1878, O-((4′-chlorobiphenyl-3-yl)methyl)hydroxylamine]	< 10	< 10	10 to 100	–	–	–
NOCCOc1ccccc1 [compound 1679, O-(2-phenoxyethyl)hydroxylamine]	–	–	–	< 10	< 10	< 10
NOCc1c(F)c(F)c(F)c(F)c1F [compound 1667, O-(perfluorobenzyl)hydroxylamine]	–	–	–	< 10	10 to 100	10 to 100
COc1ccc(CON)cc1 [compound 1815, O-(4-methoxybenzyl)hydroxylamine]	–	–	–	< 10	10 to 100	10 to 100
NOCCCc1ccccc1 [compound 1693, O-(3-phenylpropyl)hydroxylamine]	–	–	–	< 10	10 to 100	10 to 100
NOCc1ccccc1CON [compound 1822, O,O′-(1,2-phenylenebis(methylene))bis(hydroxylamine)]	–	–	–	10 to 100	10 to 100	10 to 100
NOC1CCCc2ccccc21 (stereo not drawn) [compound 1895, O-(1,2,3,4-tetrahydronaphthalen-1-yl)hydroxylamine]	< 10	< 10	10 to 100	–	–	–
NOCc1cccc(I)c1 [compound 1816, O-(3-iodobenzyl)hydroxylamine]	–	–	–	< 10	< 10	10 to 100
NOCc1cccc(C(F)(F)F)c1 [compound 1775, O-(3-(trifluoromethyl)benzyl)hydroxylamine]	–	–	–	< 10	< 10	< 10
NOCc1c(F)cccc1Cl [compound 1674, O-(2-chloro-6-fluorobenzyl)hydroxylamine]	< 10	10 to 100	10 to 100	–	–	–
